# What was measured:
# [1] = mouse, in vivo, iv, 1.92 mg/kg
# Procedure: Pharmacokinetic studies were conducted by Xenobiotic Laboratories(Plainsboro, NJ). Briefly, male CD-1 mice received a single IV bolus dose of [^14C] CN-105 52 μCi/mg(dose of 1.92 mg/kg, and approximately 100 μCi/kg) by tail vein injection. At 0.083, 0.5, 1, 6, 24, and 48 hours post-dose terminal blood samples were collected from 2 animals per timepoint and plasma was isolated for radiometric analysis.
# To assess CNS penetration, quantitative whole body autoradiography(QWBA) analysis was performed and areas of interest in blood and brain were compared. The carcasses were frozen in a dry ice/hexane bath and embedded in low viscosity carboxymethylcellulose for sagittal, 30-μm thick sections of low viscosity carboxymethylcellulose-of mouse carcasses were sectioned. Pharmacokinetic data were generated by non-compartmental PK analysis of total radioactivity concentration vs. time profiles for tissues using WinNonlin(version 6.3, Pharsight Corporation, Mountain View, CA).
# Selected tissues and areas of interest(AOI) were analyzed using QWBA. The tissues and AOI were analyzed within AIDA software using a region sampling tool. The following parameters were derived for individual subjects: maximum tissue and plasma concentration(Cmax), time of Cmax(tmax), area under the tissue concentration versus time curve from time zero to the last quantifiable tissue concentration(AUC0-t), area under the tissue concentration versus time curve from time zero to 4 hours(AUC0-4), and the apparent terminal half-life(t½). AUC0-4 was calculated using the linear trapezoidal rule. Results for AOIs are expressed in nanogram equivalents of(^14C) CN-105 per gram of tissue(ng equv./g) and were calculated as follows: ng equiv./g is equal to nCi per gram of tissue per nCi/ng of(^14C) CN-105.
# [2] = system: murine closed head injury model (TBI); assay: Rotarod vestibulomotor function after closed head injury; format: in vivo, mouse; details: for Rotarod functional performance compared to vehicle: n = 11-12/group
# Excerpt: The murine closed head injury model used in this study was previously described. The closed head impact results in injury to selectively vulnerable neurons in cortex and hippocampus, and is associated with vestibulomotor deficits and long term neurocognitive deficits. Although animals do lose body weight, they rapidly regain spontaneous ventilation, righting reflex, and the ability to ambulate. Briefly, 12–14 week-old C57Bl/6 J male mice(Jackson Laboratories, Bar Harbor, ME) were used. The trachea was intubated after anesthesia induction with 4.6% isoflurane and the lungs were mechanically ventilated with 1.6% isoflurane in 30% O2/70% N2. Core body temperature was maintained at 37 °C through a rectal probe. To avoid basilar skull fracture, ear bars are not used. The animal was secured in a stereotactic device in a prone position on a molded acrylic cast with surgical tape across the shoulders. The intubation tube was also secured to the acrylic cast with tape. The acrylic cast is designed to allow the mouse to have 3 mm of space below the head to allow for acceleration/decelaration of the head in this position. The head was shaved and the scalp was incised to expose the skull and identify anatomical landmarks. A concave 3-mm metallic disc was adhered to the skull immediately caudal to bregma. A 2.0-mm diameter pneumatic impactor(Air-Power Inc., High Point, NC) was used to deliver a single midline impact to the center of the disc surface. The impactor was discharged at 6.8 ± 0.2 m/second with a head displacement of 3 mm. After impact, the animals were allowed to recover spontaneous ventilation and then the tracheas were extubated. Mice were allowed free access to food and water. Sham mice were treated identically except for the absence of impact. All mice were housed in the same facility.
# CN-105(Ac-VSRRR-amide) was synthesized by Polypeptide Inc.(San Diego, CA) to a purity of >99%, and was delivered in sterile normal saline. […] Vehicle treated animals received intravenous injection of 100 μL of normal saline at the same time points. Animals were assigned to treatment group by a coded study identification number after injury using a paper randomization protocol. A block randomization scheme was used, so that an equal number of animals were randomized to each of the treatment groups during concurrent experiments.
# An automated Rotarod(Ugo Basile, Comerio, Italy) was used to assess vestibulomotor function. On the day prior to injury, mice(n = 11–12 mice per group) underwent one training trial at an accelerating rotational speed(4–40 rpm) for at least 200 seconds and then three additional test trials with the same accelerating rotational speed. The average time to fall from the rotating cylinder in the test trials was recorded as baseline latency. Mice were tested on consecutive days post-injury and received three consecutive daily trials with accelerating rotational speed(inter-trial interval = 15 minutes)(n = 10–12 mice). The average latency to fall from the rod was recorded. Mice unable to grasp the rotating rod were given a latency value of 0 seconds.
# [3] = system: microglia in hippocampus of TBI injured mice; assay: F4/80 immunostained microglia, unbiased stereology; format: in vivo, mouse; details: 0.05 mg/kg, 10 days post TBI
# Procedure: To assess the effects of CN-105 on inflammation, neuronal injury and neuronal loss, immunohistochemical(IHC) staining was performed using the F4/80 antibody(a marker for mature microglia and macrophages; rat monoclonal, 1:10,000; Serotec, Raleigh, NC) and the Fluoro-Jade B stain(a marker of degenerating neurons; Histo-Chem Inc. Jefferson, AR) on days 10 and 1, respectively, after TBI. IHC was performed on separate cohorts of mice from those used in neurobehavioral tests. As previously described, mice were anesthetized, euthanized, and perfused with 30 ml phosphate-buffered saline(PBS) via transcardiac puncture. The brains were then immersed in buffered formalin overnight and saturated with 30% sucrose in buffer. Sagittal sections(40 μm) were sliced on a freezing microtome and collected in cryoprotectant solution. […]
# Prior to quantification, all slides were coded and the analyst was blinded to avoid experimenter bias. For the F4/80 quantification the brains of 5 TBI treated and 6 TBI vehicle treated mice(4–6 sections/mouse) were counted. Every eighth section of the dorsal hippocampus, according to the Paxinos and Franklin(2001) mouse brain atlas, was analyzed using the Stereo Investigator 7.0 software(MicroBrightField, Williston, VT). […] An average of 12 counting frames was analyzed per section, the grid size was 450 × 450 μm, and the dissector dimensions were 80 × 80 × 10 μm. […]
substance,measurement,setting,value
Ac-VSRRR-amide [CN-105],initial plasma half-life,[1],29 min
same,tmax in serum,[1],5 min
same,tmax in the brain,[1],30 min
same,Rotarod functional performance compared to vehicle,"[2]; 0.0125 mg/kg iv 2 h after TBI, p = 0.267",did not show robust improvement
same,Rotarod functional performance compared to vehicle,"[2]; 0.05 mg/kg iv 2 h after TBI, p = 0.011",improved functional performance
same,Rotarod latency compared to vehicle,[2]; 0.05 mg/kg iv 4 hours post-injury,significant and durable improvement in Rotarod latency
same,Rotarod functional performance compared to vehicle,"[2]; 0.2 mg/kg iv 2 h after TBI, p = 0.023",improved functional performance
same,Rotarod functional performance compared to vehicle,"[2]; 0.8 mg/kg iv 2 h after TBI, p = 0.009",improved functional performance
same,lowest effective dose resulting in improved functional performance,"[2]; iv 2 h after TBI, Rotarod",0.05 mg/kg
same,effect of pretreatment on vestibulomotor and cognitive function,"[2]; pretreatment 30 minutes prior to TBI, data not shown",no additional effects on vestibulomotor and cognitive function
same,density of F4/80 microglia in dorsal hippocampus compared to vehicle,"[3]; 5 treated and 6 vehicle mice, p = 0.0002",significant decrease in density of microglia
same,microglia morphology,[3]; hippocampus,almost exclusively small ramified microglia
